According to US8362000B2, “Azetidinyl diamides as monoacylglycerol lipase inhibitors” (Janssen Pharmaceutica NV, priority 2009, dated 2013):
Residue numbers refer to the chain shown, from its start. Where two headings read alike, the source gives them in different places.

Tests used:
mutant MGL = target: T1, mutant MGL (Homo sapiens, UniProt Q99685, L169S/L176S); test: MGL ThermoFluor assay - mutant; type: binding
T1 sequence (Q99685 1-303 L169S/L176S): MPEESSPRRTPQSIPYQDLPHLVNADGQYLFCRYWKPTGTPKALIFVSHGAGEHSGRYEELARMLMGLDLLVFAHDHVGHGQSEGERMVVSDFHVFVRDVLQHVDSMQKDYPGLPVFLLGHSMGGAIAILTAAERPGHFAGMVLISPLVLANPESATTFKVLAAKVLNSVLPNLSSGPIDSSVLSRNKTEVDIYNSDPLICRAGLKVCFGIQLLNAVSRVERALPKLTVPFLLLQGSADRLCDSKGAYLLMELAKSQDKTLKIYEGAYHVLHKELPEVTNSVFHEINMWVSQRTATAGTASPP

[1] = target: T2, purified wild type MGL (wt-MGLL 6H-11-313) (Homo sapiens, UniProt Q99685)
T2 sequence (Q99685 1-303): T1 sequence (Q99685 1-303 L169S/L176S) with S169L, S176L

[2] = compound concentration measured by qNMR, read-out: MGL mutant ThermoFluor qKd (using qNMR conc.)
[3] = ThermoFluor concentration-response, read-out: MGL mutant ThermoFluor Kd
[4] = ThermoFluor, compound concentration measured by qNMR, read-out: MGL mutant ThermoFluor qKd (using qNMR conc.)
[5] = ThermoFluor thermal stability binding assay, read-out: MGL mutant ThermoFluor Kd
[6] = ThermoFluor, compound concentration measured by qNMR, read-out: MGL mutant ThermoFluor qKd (μM) (using qNMR conc.)

Compound	IC50 [1]	Kd (mutant MGL; [3])	further results
O=C(c1ccc(-c2ccc(C(F)(F)F)s2)cc1)N1CC(N2CCN(C(=O)c3cncs3)CC2)C1 [Cpd 1268]	1.22 µM		Kd (mutant MGL; [2]): 0.039 µM
O=C(c1ccc2nn(Cc3ccc(F)cc3)cc2c1)N1CC(N2CCN(C(=O)c3nccs3)CC2)C1 [Cpd 1030, 2-(4-Fluorobenzyl)-5-({3-[4-(1,3-thiazol-2-ylcarbonyl)piperazin-1-yl]azetidin-1-yl}carbonyl)-2H-indazole]	0.013 µM		Kd (mutant MGL; [2]): 0.033 µM
O=C(c1ccccn1)N1CCN(C2CN(C(=O)c3sc4cc(F)ccc4c3Cl)C2)CC1 [Cpd 810]	2.14 µM		Kd (mutant MGL; [5]): 0.29 µM
COc1cncc(-c2ccc3cc(C(=O)N4CC(N5CCN(C(=O)c6nccs6)CC5)C4)[nH]c3c2)c1 [Cpd 1196]	0.123 µM		Kd (mutant MGL; [6]): 0.37 µM
O=C(c1ccc(SCc2cccc(C(F)(F)F)c2)cc1)N1CC(N2CCN(C(=O)C(F)(F)F)CC2)C1 [Cpd 974]	0.177 µM		Kd (mutant MGL; [2]): 1.78 µM
O=C(c1cnc2cc(Cl)c(Cl)cc2c1)N1CC(N2CCN(C(=O)c3nccs3)CC2)C1 [Cpd 743]	0.324 µM		Kd (mutant MGL; [4]): 0.133 µM
O=C(c1ccc2c(ccn2CC(F)F)c1)N1CC(N2CCN(C(=O)c3cscn3)CC2)C1 [Cpd 813]	2.42 µM		Kd (mutant MGL; [2]): 0.499 µM
Cc1ccc2c(C(F)(F)F)c(C(=O)N3CC(N4CCN(C(=O)c5nccs5)CC4)C3)sc2c1 [Cpd 707, 1-(1-{[6-Methyl-3-(trifluoromethyl)-1-benzothiophen-2-yl]carbonyl}azetidin-3-yl)-4-(1,3-thiazol-2-ylcarbonyl)piperazine]	0.105 µM	0.002 µM	
COc1cccc2c(C)c(C(=O)N3CC(N4CCN(C(=O)c5ccccc5)CC4)C3)[nH]c12 [Cpd 526]	8.1 µM	4.98 µM	
Cc1c(C(=O)N2CC(N3CCN(C(=O)c4nccs4)CC3)C2)sc2nc3n(c(=O)c12)CCC3 [Cpd 824]	3.12 µM		Kd (mutant MGL; [4]): 0.074 µM
O=C(c1cc2ccc(C(F)(F)F)cc2[nH]1)N1CC(N2CCN(C(=O)c3nccs3)CC2)C1 [Cpd 756]	0.519 µM	0.383 µM	
COc1cc(-n2ccc3cc(C(=O)N4CC(N5CCN(C(=O)c6nccs6)CC5)C4)ccc32)ccc1C#N [Cpd 1115]	0.016 µM		Kd (mutant MGL; [6]): 0.005 µM
O=C(c1ccccc1)N1CCN(C2CN(C(=O)c3ccc(Oc4ccccn4)c(Cl)c3)C2)CC1 [Cpd 525]	6.99 µM	2.5 µM	
CC(C)n1c(C(F)(F)F)nc2cc(C(=O)N3CC(N4CCN(C(=O)c5nccs5)CC4)C3)ccc21 [Cpd 740]	0.294 µM	0.035 µM	
O=C(c1ccc(-c2cccc(C(F)(F)F)c2)cc1)N1CC(N2CCN(C(=O)c3cnco3)CC2)C1 [Cpd 1169]	0.055 µM		Kd (mutant MGL; [6]): 0.053 µM
Cc1ccnc(-n2ccc3cc(C(=O)N4CC(N5CCN(C(=O)c6nccs6)CC5)C4)ccc32)c1 [Cpd 1128, 1-(4-Methylpyridin-2-yl)-5-({3-[4-(1,3-thiazol-2-ylcarbonyl)piperazin-1-yl]azetidin-1-yl}carbonyl)-1H-indole]	0.021 µM		Kd (mutant MGL; [4]): 0.018 µM
O=C(c1ccc2c(ccn2-c2ccc(F)cc2)c1)N1CC(N2CCN(C(=O)c3cnco3)CC2)C1 [Cpd 1429]	0.036 µM		Kd (mutant MGL; [6]): 0.097 µM
Cn1c2ccccc2c2cc(C(=O)N3CC(N4CCN(C(=O)c5nccs5)CC4)C3)ccc21 [Cpd 750]	0.395 µM	0.025 µM	
CC(=O)NCCOc1ccc(C(=O)N2CC(N3CCN(C(=O)c4nccs4)CC3)C2)cc1 [Cpd 836]	4.76 µM		Kd (mutant MGL; [4]): 2.25 µM
O=C(c1ccc2c(c1)[nH]c(=O)n2C1CCC(F)(F)CC1)N1CC(N2CCN(C(=O)c3nccs3)CC2)C1 [Cpd 932]	0.104 µM	0.008 µM	
O=C(c1ccc2c(c1)[nH]c(=O)n2-c1ccccc1)N1CC(N2CCN(C(=O)c3nccs3)CC2)C1 [Cpd 933, 1-Phenyl-5-({3-[4-(1,3-thiazol-2-ylcarbonyl)piperazin-1-yl]azetidin-1-yl}carbonyl)-1,3-dihydro-2H-benzimidazol-2-one]	0.191 µM	0.034 µM	
O=C(c1ccc(-n2cc(-c3cc(F)cc(F)c3)cn2)cc1)N1CC(N2CCN(C(=O)c3nccs3)CC2)C1 [Cpd 1123]	0.019 µM		Kd (mutant MGL; [4]): 1.35 µM

The next lines start with results.

IC50 [1]	Kd (mutant MGL; [3])	Compound	further results
3.73 µM	2.63 µM	O=C(c1cscn1)N1CCN(C2CN(C(=O)c3cc4ccc(C(F)(F)F)cc4[nH]3)C2)CC1 [Cpd 828]	
< 0.005 µM	0.089 µM	Cc1c(Cc2ccc(C(F)(F)F)cc2)cccc1C(=O)N1CC(N2CCN(C(=O)c3nccs3)CC2)C1 [Cpd 1008]	
0.009 µM		O=C(c1ccc2c(ccn2-c2ccc(F)cc2)c1)N1CC(N2CCN(C(=O)C(F)(F)F)CC2)C1 [Cpd 1079, 1-(4-Fluorophenyl)-5-({3-[4-(trifluoroacetyl)piperazin-1-yl]azetidin-1-yl}carbonyl)-1H-indole]	Kd (mutant MGL; [4]): 0.272 µM
0.287 µM		Cc1nc2cc(C(=O)N3CC(N4CCN(C(=O)c5nccs5)CC4)C3)ccc2n1-c1ccc(F)cc1 [Cpd 1227]	Kd (mutant MGL; [2]): 0.011 µM
0.237 µM	0.083 µM	O=C(c1cccc(CNc2ccccc2F)c1)N1CC(N2CCN(C(=O)c3nccs3)CC2)C1 [Cpd 1005]	
3.28 µM		O=C(c1cscn1)N1CCN(C2CN(C(=O)c3cn(-c4ccc(F)cc4)c4ccccc34)C2)CC1 [Cpd 1295]	Kd (mutant MGL; [6]): 1.51 µM
0.273 µM	0.042 µM	Cc1nn(-c2ccc(Cl)c(Cl)c2)c(C)c1C(=O)N1CC(N2CCN(C(=O)c3nccs3)CC2)C1 [Cpd 1225]	
0.128 µM		O=C(c1ccc2cnn(Cc3ccc(F)cc3)c2c1)N1CC(N2CCN(C(=O)c3nccs3)CC2)C1 [Cpd 1051, 1-(4-Fluorobenzyl)-6-({3-[4-(1,3-thiazol-2-ylcarbonyl)piperazin-1-yl]azetidin-1-yl}carbonyl)-1H-indazole]	Kd (mutant MGL; [2]): 0.175 µM
0.289 µM	0.291 µM	O=C(c1ccc(S(=O)(=O)c2cccc(C(F)(F)F)c2)cc1)N1CC(N2CCN(C(=O)c3cscn3)CC2)C1 [Cpd 738]	
10.2 µM		O=C(c1cc2nc(C(F)(F)F)ccc2[nH]1)N1CC(N2CCN(C(=O)c3nccs3)CC2)C1 [Cpd 863]	Kd (mutant MGL; [4]): 4.37 µM
7.87 µM		O=C(c1ccc2c(c1)ncn2CCC(F)(F)F)N1CC(N2CCN(C(=O)c3cscn3)CC2)C1 [Cpd 851]	Kd (mutant MGL; [2]): 0.883 µM
> 16.7 µM		O=C(c1nc2cc(-c3cccnc3F)ccc2[nH]1)N1CC(N2CCN(C(=O)c3nccs3)CC2)C1 [Cpd 1476]	Kd (mutant MGL; [6]): 7.21 µM
> 16.7 µM		O=C(c1nccs1)N1CCN(C2CN(C(=O)c3ncoc3-c3ccc(Cl)cc3)C2)CC1 [Cpd 1473]	Kd (mutant MGL; [5]): 6.67 µM
0.173 µM	1.14 µM	COc1ccc2c(C)c(C(=O)N3CC(N4CCN(C(=O)c5nccs5)CC4)C3)oc2c1 [Cpd 721]	
0.238 µM		O=C(c1ccc(OCC(F)(F)F)cc1)N1CC(N2CCN(C(=O)c3nccs3)CC2)C1 [Cpd 730]	Kd (mutant MGL; [4]): 0.146 µM
1.67 µM	0.661 µM	O=C(c1cc2ccc(C(F)(F)F)nc2[nH]1)N1CC(N2CCN(C(=O)c3nccs3)CC2)C1 [Cpd 799]	
0.016 µM		O=C(c1ccc2nc(N3CCC(F)(F)CC3)sc2c1)N1CC(N2CCN(C(=O)c3nccs3)CC2)C1 [Cpd 671]	Kd (mutant MGL; [2]): 0.018 µM
2.36 µM	0.302 µM	O=C(c1ccc2c(c1)[nH]c(=O)n2-c1ccccc1)N1CC(N2CCN(C(=O)c3cscn3)CC2)C1 [Cpd 939]	
